Assay results published in patent US12576155B2, “Senolytic and antiinflammatory prodrugs and methods of use thereof” (priority 2019, dated 2026).
Read-outs that look alike come from different tables or passages of the source.

Legend:
[1] = test system: human senescent fibroblasts induced by different stimuli; test: Cell viability, senescent and non-senescent human embryonic fibroblasts (HEFs); format: cell-based
Experimental: Human embryonic skin fibroblasts (HEFs) were obtained as previously described. Briefly, human embryonic skin tissues, obtained from aborted tissue with informed patient consent, were minced with forceps and incubated in 1 mg/ml collagenase IV for 1-2 hours at 37° C. After enzyme treatment, cells were collected by centrifugation and resuspended in HEF medium (Dulbecco's modified Eagle's medium (DMEM, Gibco) containing 10% fetal bovine serum (FBS, Ausbian), 1% GlutaMAX (Gibco), 1% Non-Essential Amino Acids (NEAA, Gibco) and 1% penicillin/streptomycin (Gibco). Cells were plated on 10 cm tissue culture dishes and grown in 10% FBS DMEM.
(§1) For replication-induced senescence, cells were passaged until they lost the ability to proliferate and became senescent. NBFs were used as senescent cells after approximately 8-9 passages or 12 population doublings. HEFs were used after approximately 35 passages or 50 population doublings. HUVECs were senescent after approximately 18 passages or 24 population doublings.
For ionizing radiation-induced senescence, MEFs and HEFs were exposed to 10 Gy of ionizing irradiation in an RS 2000 X-ray Biological Irradiator (Rad Source Technologies, Inc.) at a dose rate of 1.205 Gy/min. The day after irradiation, MEFs or HEFs were passaged at a 1:3 dilution and cultured for another three days. Then these cells were plated to carry out further experiments.
For etoposide-induced senescence, MEFs were treated with 2 μM etoposide for 20 hours, and HEFs were treated with 10 μM etoposide for 12-18 hours. Three days after treatment, cells were sub-cultured at a 1:3 ratio for 72 hours in a fresh medium before further analysis.
To test the viability of senescent and non-senescent cells treated with SSK1, cells were stained with a mixture of Hoechst 33342 and propidium iodide (PI) (CA1120, Solarbio) to distinguish living and dead cells. […] The plate was incubated at 4° C. for 30 min and observed on a fluorescence microscope or automatic cell imaging system. Viable cells were quantified using a MD Image Xpress Micro XL (Molecular Devices).

[2] = test system: senescent human umbilical vein endothelial cells (HUVECs); test: Cell viability, senescent and non-senescent HUVECs; format: cell-based; settings: replication-induced senescent vs non-senescent HUVECs; increasing doses
Text: as §1
To test the viability of senescent and non-senescent cells treated with SSK1, cells were stained with a mixture of Hoechst 33342 and propidium iodide (PI) (CA1120, Solarbio) to distinguish living and dead cells. After treatment with the small molecules, the cell culture medium was removed, and the cells were washed once with PBS. Then, the cells were stained according to the manufacturer's protocol, where the final concentrations of Hoechst 33342 and PI were 5 μg/ml and 2 μg/ml in PBS buffer. The plate was incubated at 4° C. for 30 min and observed on a fluorescence microscope or automatic cell imaging system. Viable cells were quantified using a MD Image Xpress Micro XL (Molecular Devices).

p38 MAPK = test: Western blotting of phos-p38 MAPK in senescent cells; format: cell-based, mouse; settings: 0.5 μM SSK1, after 36 hours of treatment
Experimental: Senescent NBF cells were plated and incubated overnight at 37° C. The cells were treated with 0.05 μM gemcitabine or 0.5 μM SSK1 prodrug for the indicated time. Before harvest, cells were washed twice with pre-cooled PBS buffer. Total protein was extracted with lysis buffer (50 mM Tris-HCl (pH 7.5), 137 mM sodium chloride, 1 mM EDTA, 1% Nonidet P-40, 10% glycerol, 0.1 mM sodium orthovanadate, 10 mM sodium pyrophosphate, 20 mM β-glycerophosphate, 50 mM sodium fluoride, 1 mM phenylmethylsulfonyl fluoride), and the protein concentrations were normalized using the BCA Protein Assay Kit (Pierce). Protein samples were mixed with protein loading buffer and incubated at 95° C. for 5 min. Western blotting was performed by using the following antibodies: phospho-specific p38 MAPK (Thr180/Tyr182) (Cell Signaling Technology, CST, catalog number 4511) and p38 (CST, catalog number 8690); phospho-histone H2A.X (Ser139) (CST, catalog number 9718) and histone H2A.X (CST, catalog number 7631). The β-tubulin protein level was also determined as the loading control by using the β-tubulin antibody (CST, catalog number 2128).

[3] = rhesus monkey, in vivo

CC(=O)OCC1O[C@@H](Oc2ccc(COC(=O)Nc3ccn([C@@H]4O[C@H](CO)C(O)C4(F)F)c(=O)n3)cc2[N+](=O)[O-])C(OC(C)=O)C(OC(C)=O)[C@H]1OC(C)=O (stereo partly drawn) [SSK1]
Clearance of senescent cells ([1]; senescent HEFs induced by different stresses vs non-senescent counterparts): cleared by SSK1
Percentage of cell viability in senescent cell populations ([1]; vehicle or treated senescent HEFs, FIG. 2F): dose dependent decrease of senescent cells
Selective killing of senescent cells (viability) [2]: selectively killed by SSK1
State of p38 MAPK (phosphorylation) (p38 MAPK): activated p38 MAPK by phosphorylation
UA ([3]; 0.5 mg/kg): 9 µmol/L
UA ([3]; 2 mg/kg): 10 µmol/L
